Laboratory results as given in ChEMBL document CHEMBL1148562, “Synthesis and biological evaluation of novel pyrrolo[2,1-c][1,4]benzodiazepine prodrugs for use in antibody-directed enzyme prodrug therapy” (Bioorg Med Chem Lett, 2006).

Assays:
LS174T [1] = assay: Cytotoxicity against LS174T human colon cell line after continuous exposure; assay type: functional, cell-based
LS174T [2] = assay: Cytotoxicity against LS174T human colon cell line after 1 hour of exposure; assay type: functional, cell-based
[3] = Conversion of prodrug to parent in distilled water at room temperature for 24 hrs; assay type: ADME; details: buffer
[4] = Conversion of prodrug to parent in distilled water at 37 degC for 24 hrs; assay type: ADME; details: buffer

Compound | IC50 (LS174T [1]) [µM] | IC50 (LS174T [2]) [µM] | Activity [3] | Activity [4] | Stability [3]
COc1cc2c(cc1OC)C(=O)N1CCC[C@H]1C=N2 | 1.4 | 14 |  |  | 
COc1cc2c(cc1OCCCOc1cc3c(cc1OC)C(=O)N1CCC[C@H]1C=N3)N=C[C@@H]1CCCN1C2=O [DSB-120] | 0.00047 | 0.013 |  |  | 
COc1cc2c(cc1OC)N(C(=O)OCc1ccc(NC(=O)N[C@@H](CCC(=O)O)C(=O)O)cc1)[C@@H](O)[C@@H]1CCCN1C2=O | 1.6 | 28 | Active | Active | 
COc1cc2c(cc1OCCCOc1cc3c(cc1OC)C(=O)N1CCC[C@H]1[C@H](O)N3C(=O)OCc1ccc(NC(=O)N[C@@H](CCC(=O)O)C(=O)O)cc1)N(C(=O)OCc1ccc(NC(=O)N[C@@H](CCC(=O)O)C(=O)O)cc1)[C@@H](O)[C@@H]1CCCN1C2=O | 0.0008 | 0.006 | Active | Active | 
COc1cc2c(cc1OCCCOc1cc3c(cc1OC)C(=O)N1CCC[C@H]1[C@H](O)N3C(=O)OCc1ccc(OC(=O)N[C@@H](CCC(=O)O)C(=O)O)cc1)N(C(=O)OCc1ccc(OC(=O)N[C@@H](CCC(=O)O)C(=O)O)cc1)[C@@H](O)[C@@H]1CCCN1C2=O | 0.021 | 0.2 |  | 3% | Stable
COc1cc2c(cc1OC)N(C(=O)OCc1ccc(OC(=O)N[C@@H](CCC(=O)O)C(=O)O)cc1)[C@@H](O)[C@@H]1CCCN1C2=O | 20 | > 100 |  | 7% | Stable
